Experimental data taken from patent publication US11149047B2, “Aryl imidazoles for treatment of cancer” (Aptose Biosciences Inc., priority 2017, dated 2021).
Where two headings read alike, the source gives them in different places.

What was measured:
[1] = Stability / complex formation in culture medium and on storage; type: physicochemical; settings: COMPOUND I incubated with complete tissue culture medium
Procedure: Five molar equivalents of ferrous ion as FeSO4 in a concentrated water stock was added to COMPOUND I in ethanol which produced a deep red precipitate that was subsequently dissolved in DMSO and characterized by HPLC and mass spectrometry. Fe(COMPOUND I)3 was >95% pure and stable in the complete RPMI-1640 media for at least 5 days.

[2] = system: phosphorylated ATM, γH2AX, cleaved PARP in Raji cells; assay: Western blot of phospho-ATM, γH2AX and cleaved PARP; type: cell-based, human; settings: 0.5 μM
Procedure: (§1) The structure of COMPOUND I is similar to drugs that bind to quadruplex structures in DNA which results in strand breaks; this led to the investigation of whether COMPOUND I caused damage to DNA. The parental Raji cells were treated with 0.5 μM COMPOUND I for increasing periods of time and induction of DNA damage was assessed by accumulation of the phosphorylated forms of ATM and γH2AX measured by Western blot analysis. […] Raji cells have very small nuclei making it difficult to quantify the formation of γH2AX foci, so the human ovarian carcinoma cell line CAOV3 was used for this purpose. […] Evidence of DNA damage was further strengthened by the results of the neutral comet assay which mainly detects DNA double strand breaks (FIG. 2D).

[3] = system: phospho-ATM, phospho-γH2AX, PARP cleavage in Raji/COMPOUND IR cells; assay: as above; type: cell-based, human; settings: 0.5 μM, 24 h
Procedure: Only when the Raji/COMPOUND IR cells were treated with at least 3 times as much COMPOUND I did the intracellular content of Fe(COMPOUND I)3 finally reach a level similar to that in the sensitive cells (FIG. 4D).

[4] = system: DNA double strand breaks in CAOV3 cells; assay: Neutral comet assay; type: cell-based, human
Procedure: Comet assay kits were purchased from Trevigen (Gaithersburg, Md.) and neutral comet assay was performed according to the manufacturer's instructions. Images were collected with a Keyence Fluorescent Microscope (Keyence America, Itasca, Ill.) and quantitated with OpenComet software.
as §1

MV4-11 = assay: Cytotoxicity study (MTS); type: cell-based; settings: Homo sapiens
Procedure: EOL-1, GRANTA-519, Jeko-1, Jurkat, Molm-13, NOMO-1, SKM-1, and SU-DHL-6 were obtained from Leibniz-Institut DSMZ. HL-60, KG-1, Mino, MV4-11, Raji, and THP-1 were obtained from ATCC. HEL92.1.7 were obtained from the European Collection of Authenticated Cell Cultures and Ramos cells were a gift from Dr. M. Andreeff (MD Anderson Cancer Center, Houston, Tex.). All cells were cultured in complete media as per the manufacturer's instructions. Early passage cells were collected and frozen within 1 month of receipt from the manufacturer. All experiments were performed on early passage cells within 6 weeks of thawing. MycoScope Mycoplasma Detection Kit (Genlantis catalog #MY01050) was used to screen for potential contamination every 6 months. Peripheral blood mononuclear cells (PBMC) were isolated from fresh healthy donor blood using Ficoll-Paque PLUS (GE Healthcare, catalog #17-1440-02). For synthesis of COMPOUND I free base, 10-phenanthroline-5,6-dione (1.2 equivalents), acetic acid (22 volumes), 2-methyl-5-fluoroindole-3-carboxaldehyde (1.0 equivalents), and ammonium acetate (15 equivalents) were reacted under medium agitation while heated at 95±5° C. for 3 to 7 hours. The reaction was cooled to between 20° C. and 25° C., filtered, rinsed with acetic acid and ethanol, and dried with N2 purge, followed by a wash with 2:1 ethanol:water at 65° C. for 4 hours, cooling to 20° C. to 25° C., filtration, rinsing with 2:1 ethanol:water and EtOAc, and then dried with N2 purge. The purity by HPLC was 99.5%, and the structural identity was confirmed by FT-IR, ^1HNMR, ^13C NMR, and LC/MS. For Fe(COMPOUND I)3 synthesis, five molar equivalents of ferrous ion FeSO4 in water was added to COMPOUND I dissolved in ethanol. The deep red precipitate produced, Fe(COMPOUND I)3, was collected and dissolved in DMSO and characterized by HPLC and mass spectrometry as >95% pure. CX-5461 (7) was purchased from MedChem Express (catalog #HY-13323).
[…] Cell viability was measured using CellTiter 96 AQueous one solution (MTS) cell proliferation assay (Promega, catalog #G3581), and IC50 values were calculated using GraphPad Prism 7 software.

[5] = system: AML cell lines and various forms of lymphoma cell lines; assay: Cytotoxicity study (MTS), cell line panel; type: cell-based; settings: inhibition of proliferation; read-out: IC50 values, range over cell lines
Procedure: Cells were plated and treated with vehicle DMSO or COMPOUND I (10 concentrations) in 96-well plates for 5 days at 37° C. and 5% CO2. Cell viability was measured using CellTiter 96 AQueous one solution (MTS) cell proliferation assay (Promega, catalog #G3581), and IC50 values were calculated using GraphPad Prism 7 software.
(§2) Previous studies reported upregulation of KLF4 and CDKN1A expression as a potential mechanism of APT0-COMPOUND I activity in tumors. […] The upregulation of CDKN1A mRNA increased with duration of exposure in all AML cell lines tested (FIGS. 15D and 15E). At later time points, CDKN1A expression began to decrease, likely due to increasing cell death. Induction of CDKN1A expression is typically associated with a subsequent G0-G1, cell-cycle arrest, which was observed following COMPOUND I treatment of solid tumor lines.

MV4-11 cells = assay: Flow cytometry cell-cycle analysis; type: cell-based; settings: 1 μmol/L, 24-hour exposure
Procedure: Cells were treated as described above. To determine apoptosis, cells were stained with FITC-Annexin V and propidium iodide (PI; BD Pharmingen, catalog #556570) and then analyzed on BD Accuri C6 flow cytometer. To measure DNA synthesis and phases of cell cycle, treated cells were stained with 5-ethynyl-2′-deoxyuridine (Edu) Alexa Fluor 488 (Thermo Fisher Scientific, catalog #C10425) and PI (PI/RNase A staining solution, BD Biosciences, catalog #550825). The dead cells were excluded from analysis by using Live/Dead Fixable Far Red Dead Cell Stain Kit (Thermo Fisher Scientific, catalog #L34973). Staining was performed as per the manufacturers' instructions.
as §2

## Cc1[nH]c2ccc(F)cc2c1-c1nc2c3cccnc3c3ncccc3c2[nH]1 [COMPOUND I, 2-(5-fluoro-2-methyl-1H-indol-3-yl)-1H-imidazo[4,5-f][1,10]phenanthroline]
[1]
  extracellular Fe(COMPOUND I)3 formation: no extracellular Fe(COMPOUND I)3 was detected
[2]; time course
  cleavage of PARP: detected starting at 8 h
[2]; up to 24 h
  phosphorylated ATM and γH2AX accumulation: clear increase in phosphorylated ATM and γH2AX starting at 6 h
[3]
  phospho-ATM, phospho-γH2AX, PARP cleavage: no increase in phospho-ATM or phospho-γH2AX, and no detectable PARP cleavage
[4]; 0.5 μM, 6 h
  tail DNA vs DMSO: no increase in tail DNA
[4]; 6 h treatment then 18 h drug free media (pulse-chase)
  DNA in comet tails: significantly more DNA in the comet tails
MV4-11; MV4-11, 120 h, AML, 5 days, read-out: IC50 (μM) Mean
  IC50: 0.24 µM
MV4-11; MV4-11, exposure 48 hours, read-out: IC50
  IC50: 0.47 µM
MV4-11; MV4-11, exposure 72 hours, read-out: IC50
  IC50: 0.4 µM
MV4-11; MV4-11, exposure 120 hours, read-out: IC50
  IC50: 0.24 µM
[5]
  IC50: 57 to 1750 nM
MV4-11 cells
  G0-G1 cell-cycle arrest: all live cells had arrested in G0-G1
